Target: MAPKAPK2 (Homo sapiens, UniProt P49137)
Test: MK2 Enzymatic Assay
Type: biochemical
Details: 0.5 nM MAPKAPK2, 3 μM ATP, 2 μM Ser/Thr4 peptide, 23° C., values given as concentration bins
Protocol: Briefly, 5 μL of 2× (4 μM) 100% phosphorylation peptide was delivered into the control wells of a 384-well assay plate. 5 μL of 2× (1 nM) MAPKAPK2 and 2× peptide (4 μM) mixture in assay buffer was dispensed to remaining columns of assay plate using Eppendorf electronic multiple channel pipette. The assay plate was incubated for 20 minutes. 5 μL of 2× ATP (6 μM) in assay buffer was dispensed to each well and then the assay plate was lightly centrifuged. The assay plate was incubated for an additional 120 minutes.
5 μL of development reagent A was dispensed to all wells using Eppendorf electronic multiple channel pipette. After incubating the development reaction for 120 min, plates were read on a Perkin Elmer Envision instrument.
Percent phosphorylation was calculated using the following formula:
[formula] Where • C100%=Average Coumarin emission signal of the 100% Phos. Control • C0%=Average Coumarin emission signal of the 0% Phos. Control • F100%=Average Fluorescein emission signal of the 100% Phos. Control • F0%=Average Flurescein emission signal of the 0% Phos. Control

MAPKAPK2, sequence (P49137 whole entry, species assumed): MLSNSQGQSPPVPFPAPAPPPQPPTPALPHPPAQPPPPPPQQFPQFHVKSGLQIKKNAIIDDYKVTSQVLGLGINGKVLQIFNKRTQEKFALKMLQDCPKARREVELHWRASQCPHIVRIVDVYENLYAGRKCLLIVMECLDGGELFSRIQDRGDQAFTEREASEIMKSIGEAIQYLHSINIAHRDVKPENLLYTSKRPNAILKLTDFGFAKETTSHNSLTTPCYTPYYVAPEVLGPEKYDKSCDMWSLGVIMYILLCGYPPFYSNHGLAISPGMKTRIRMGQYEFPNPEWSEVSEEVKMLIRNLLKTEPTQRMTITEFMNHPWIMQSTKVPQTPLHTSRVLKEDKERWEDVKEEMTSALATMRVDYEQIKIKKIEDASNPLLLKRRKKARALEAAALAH

| SMILES | IC50 [nM] |
| --- | --- |
| O[C@H]1CN(c2ccc3c(c2)Cn2cc(-c4ccc(F)cc4)cc2-c2nccn2-3)C[C@@H]1CN1CCCC1 [Compound 470, (3R,4S)-1-(12-(4-fluorophenyl)-9H-benzo[e]imidazo[2,1-c]pyrrolo[1,2-a][1,4]diazepin-7-yl)-4-(pyrrolidin-1-ylmethyl)pyrrolidin-3-ol] | < 50 |
| NCC[C@H]1CN(c2ccc3c(c2)Cn2cc(-c4ccc(F)cc4)cc2-c2nccn2-3)C[C@@H]1O (relative stereo) [Compound 492, Trans-4-(2-aminoethyl)-1-(12-(4-fluorophenyl)-9H-benzo[e]imidazo[2,1-c]pyrrolo[1,2-a][1,4]diazepin-7-yl)pyrrolidin-3-ol] | < 50 |
| C[C@@H]1c2cc(N3C[C@@H](CN(C)C)[C@H](O)C3)ccc2-n2ccnc2-c2cc(-c3ccc(F)cc3)cn21 [Compound 508, (3S,4R)-4-((dimethylamino)methyl)-1-((R)-12-(4-fluorophenyl)-9-methyl-9H-benzo[e]imidazo[2,1-c]pyrrolo[1,2-a][1,4]diazepin-7-yl)pyrrolidin-3-ol] | < 50 |
| CN(C)[C@@H]1CN(c2ccc3c(c2)Cn2cc(-c4ccc(F)cc4)cc2-c2nccn2-3)C[C@H]1O [Compound 351, (3R,4R)-4-(dimethylamino)-1-(12-(4-fluorophenyl)-9H-benzo[e]imidazo[2,1-c]pyrrolo[1,2-a] [1,4]diazepin-7-yl)pyrrolidin-3-ol] | < 50 |
| CN(C)C[C@@H]1CCN(c2ccc3c(c2)Cn2cc(-c4ccc(F)cc4)cc2-c2nccn2-3)C1 [Compound 345, (S)-1-(1-(12-(4-fluorophenyl)-9H-benzo[e]imidazo[2,1-c]pyrrolo[1,2-a][1,4]diazepin-7-yl)pyrrolidin-3-yl)-N,N-dimethylmethanamine] | < 50 |
| Fc1ccc(-c2cc3n(c2)Cc2cc(N4CC5(CCNC5)C4)ccc2-n2ccnc2-3)cc1 [Compound 378, 12-(4-fluorophenyl)-7-(2,6-diazaspiro[3.4]octan-2-yl)-9H-benzo[e]imidazo[2,1-c]pyrrolo[1,2-a][1,4]diazepine] | < 50 |
| Cc1nnc2n1-c1ccc(N3CC[C@@H](CN(C)C)C3)cc1Cn1cc(-c3ccc(C#N)cc3)cc1-2 [Compound 228, 4-(7-((S)-3-((dimethylamino)methyl)pyrrolidin-1-yl)-3-methyl-9H-benzo[e]pyrrolo[1,2-a] [1,2,4]triazolo[3,4-c][1,4]diazepin-12-yl)benzonitrile] | 50 to 100 |
| CN(C)[C@@H]1CCN(c2ccc3c(c2)Cn2cc(-c4ccc(F)cc4)cc2-c2nnnn2-3)C1 [Compound 406, (R)-1-(12-(4-fluorophenyl)-9H-benzo[e]pyrrolo[1,2-a]tetrazolo[5,1-c][1,4]diazepin-7-yl)-N,N-dimethylpyrrolidin-3-amine] | < 50 |
| CN[C@@H]1CN(c2ccc3c(c2)Cn2cc(-c4ccc(F)cc4)cc2-c2ncnn2-3)C[C@H]1CO (relative stereo) [Compound 505, (Trans-1-(12-(4-fluorophenyl)-9H-benzo[e]pyrrolo[1,2-a][1,2,4]triazolo[5,1-c][1,4]diazepin-7-yl)-4-(methylamino)pyrrolidin-3-yl)methanol] | 50 to 100 |
| CN(C)C[C@@H]1CN(c2ccc3c(c2)Cn2cc(-c4ccc(F)cc4)cc2-c2nccn2-3)C[C@@H]1F [Compound 475, 1-((3R,4R)-4-fluoro-1-(12-(4-fluorophenyl)-9H-benzo[e]imidazo[2,1-c]pyrrolo[1,2-a][1,4]diazepin-7-yl)pyrrolidin-3-yl)-N,N-dimethylmethanamine] | < 50 |
| CN(C)[C@H]1CN(c2ccc3c(c2)Cn2cc(-c4ccc(F)cc4)cc2-c2nccn2-3)C[C@@H]1O [Compound 352, (3S,4S)-4-(dimethylamino)-1-(12-(4-fluorophenyl)-9H-benzo[e]imidazo[2,1-c]pyrrolo[1,2-a] [1,4]diazepin-7-yl)pyrrolidin-3-ol] | < 50 |
| Fc1ccc(-c2cc3n(c2)Cc2cc(N4CCC5(CC4)CNC5)ccc2-n2nnnc2-3)cc1 [Compound 402, 12-(4-fluorophenyl)-7-(2,7-diazaspiro[3.5]nonan-7-yl)-9H-benzo[e]pyrrolo[1,2-a]tetrazolo[5,1-c][1,4]diazepine] | < 50 |
| CN(C)[C@@H]1CN(c2ccc3c(c2)Cn2cc(-c4ccc(F)cc4)cc2-c2nccn2-3)C[C@H]1CO (relative stereo) [Compound 490, ((Trans)-4-(dimethylamino)-1-(12-(4-fluorophenyl)-9H-benzo[e]imidazo[2,1-c]pyrrolo[1,2-a][1,4]diazepin-7-yl)pyrrolidin-3-yl)methanol] | < 50 |
| CN(C)C[C@H]1CN(c2ccc3c(c2)Cn2cc(-c4ccc(F)cc4)cc2-c2ncnn2-3)C[C@H]1O [Compound 415, (3S,4S)-4-((dimethylamino)methyl)-1-(12-(4-fluorophenyl)-9H-benzo[e]pyrrolo[1,2-a][1,2,4]triazolo[5,1-c][1,4]diazepin-7-yl)pyrrolidin-3-ol] | 100 to 200 |
| CN1CC2(CCN(c3ccc4c(n3)Cn3cc(-c5ccc(C#N)cc5)cc3-c3nccn3-4)C2)C1 [Compound 297, 4-(7-(2-methyl-2,6-diazaspiro[3.4]octan-6-yl)-9H-imidazo[2,1-c]pyrido[3,2-e]pyrrolo[1,2-a] [1,4]diazepin-12-yl)benzonitrile] | 50 to 100 |
| CN1CC2(CCN(c3ccc4c(c3)Cn3cc(-c5ccc(C#N)cc5)cc3-c3nccn3-4)C2)C1 [Compound 125, 4-(7-(2-methyl-2,6-diazaspiro[3.4]octan-6-yl)-9H-benzo[e]imidazo[2,1-c]pyrrolo[1,2-a][1,4]diazepin-12-yl)benzonitrile] | < 50 |
| CN(C)C[C@H]1CN(c2ccc3c(n2)Cn2cc(-c4ccc(F)cc4)cc2-c2nccn2-3)C[C@@H]1O [Compound 435, (3R,4S)-4-((dimethylamino)methyl)-1-(12-(4-fluorophenyl)-9H-imidazo[2,1-c]pyrido[3,2-e]pyrrolo[1,2-a][1,4]diazepin-7-yl)pyrrolidin-3-ol] | < 50 |
| CNC[C@@H]1CN(c2ccc3c(c2)Cn2cc(-c4ccc(F)cc4)cc2-c2nccn2-3)C[C@@H]1F [Compound 474, 1-((3R,4R)-4-fluoro-1-(12-(4-fluorophenyl)-9H-benzo[e]imidazo[2,1-c]pyrrolo[1,2-a][1,4]diazepin-7-yl)pyrrolidin-3-yl)-N-methylmethanamine] | < 50 |
| CN(C)C[C@H]1CN(c2ccc3c(c2)Cn2cc(-c4ccc(F)cc4)cc2-c2nccn2-3)C[C@H]1O [Compound 349, (3S,4S)-4-((dimethylamino)methyl)-1-(12-(4-fluorophenyl)-9H-benzo[e]imidazo[2,1-c]pyrrolo[1,2-a][1,4]diazepin-7-yl)pyrrolidin-3-ol] | < 50 |
| C[C@@H]1CN(c2ccc3c(c2)Cn2cc(-c4ccc(F)cc4)cc2-c2nnnn2-3)C[C@H](C)N1 [Compound 395, 7-(cis-3,5-dimethylpiperazin-1-yl)-12-(4-fluorophenyl)-9H-benzo[e]pyrrolo[1,2-a]tetrazolo[5,1-c][1,4]diazepine] | < 50 |
| Fc1ccc(-c2cc3n(c2)Cc2cc(N4CCC5(CNC5)C4)ccc2-n2nnnc2-3)cc1 [Compound 398, 12-(4-fluorophenyl)-7-(2,6-diazaspiro[3.4]octan-6-yl)-9H-benzo[e]pyrrolo[1,2-a]tetrazolo[5,1-c][1,4]diazepine] | < 50 |
| CN[C@H]1CCN(c2ccc3c(c2)Cn2cc(-c4ccc(F)cc4F)cc2-c2ncnn2-3)C1 [Compound 451, (S)-1-(12-(2,4-difluorophenyl)-9H-benzo[e]pyrrolo[1,2-a][1,2,4]triazolo[5,1-c][1,4]diazepin-7-yl)-N-methylpyrrolidin-3-amine] | 100 to 200 |
| N#Cc1ccc(-c2cc3n(c2)Cc2cc(N4CC[C@H]5NCC[C@@H]54)ccc2-n2ncnc2-3)cc1 (racemic) [Compound 249, 4-(7-(trans-hexahydropyrrolo[3,2-b]pyrrol-1(2H)-yl)-9H-benzo[e]pyrrolo[1,2-a][1,2,4]triazolo[5,1-c][1,4]diazepin-12-yl)benzonitrile] | < 50 |
| CN(C)[C@H]1CN(c2ccc3c(c2)Cn2cc(-c4ccc(C#N)cc4)cc2-c2nncn2-3)C[C@@H]1O [Compound 58, 4-(7-((3S,4S)-3-(dimethylamino)-4-hydroxypyrrolidin-1-yl)-9H-benzo[e]pyrrolo[1,2-a][1,2,4]triazolo[3,4-c][1,4]diazepin-12-yl)benzonitrile] | 50 to 100 |
| CN(C)C1CN(c2ccc3c(c2)Cn2cc(-c4ccc(C#N)cc4)cc2-c2nnnn2-3)C1 [Compound 235, 4-(7-(3-(dimethylamino)azetidin-1-yl)-9H-benzo[e]pyrrolo[1,2-a]tetrazolo[5,1-c][1,4]diazepin-12-yl)benzonitrile] | 100 to 200 |
| CN(C)[C@H]1CN(c2ccc3c(c2)Cn2cc(-c4ccc(C#N)cc4)cc2-c2nccn2-3)C[C@@H]1O [Compound 131, 4-(7-((3S,4S)-3-(dimethylamino)-4-hydroxypyrrolidin-1-yl)-9H-benzo[e]imidazo[2,1-c]pyrrolo[1,2-a][1,4]diazepin-12-yl)benzonitrile] | < 50 |
| CN(C)C[C@H]1CCN(c2ccc3c(c2)Cn2cc(-c4ccc(F)cc4)cc2-c2nccn2-3)C1 [Compound 346, (R)-1-(1-(12-(4-fluorophenyl)-9H-benzo[e]imidazo[2,1-c]pyrrolo[1,2-a][1,4]diazepin-7-yl)pyrrolidin-3-yl)-N,N-dimethylmethanamine] | < 50 |

Source: US10562909B2, “Fused quadracyclic compounds, compositions and uses thereof” (Tabomedex Biosciences, LLC, priority 2016, dated 2020)
